Reference: PubChem BioAssay AID1259411 (Chemical Carcinogenesis Research Information System (CCRIS), 2018)
Activity calls are given as the source filed them. The rule behind the calls is not given here.

Tested on: rodent carcinogenicity bioassays, tumor incidence
Assay: CCRIS carcinogenicity studies
Excerpt: The CCRIS database contains chemical records with carcinogenicity, mutagenicity, tumor promotion, and tumor inhibition test results. It was developed by the National Cancer Institute (NCI). Data are derived from studies cited in primary journals, current awareness tools, NCI reports, and other sources. Test results have been reviewed by experts in carcinogenesis and mutagenesis.
CCRIS provides historical information from the years 1985 - 2011. It is no longer updated.
This is an archive assay for CCRIS carcinogenicity studies.

For C=O, the carcinogen call (Species: Hamster, Strain/Sex: Syrian golden/Male (132/Control group; 88/Experimental group), Route: Inhalation, Dose: 10 ppm 5 hr/day, 5 d/wk for life, study duration was lifetime of the animal) was “inactive; negative”, the carcinogen call (Species: Mouse, Strain/Sex: B6C3F1/Female (120/Group with sacrifices at 6, 12 and 24 mo), Route: Inhalation, Dose: 0, 2, 6, 15 ppm 6 hr/d, 5 d/wk for 24 mo, study duration 24 mo, Dose: 0, 2, 6, 15 ppm 6 hr/d, 5 d/wk for 24 mo, study duration 24 mo) was “inactive; negative. dose-related non-neoplastic nasal lesions were observed” and the carcinogen call (Species: Mouse, Strain/Sex: B6C3F1/Male (120/Group with sacrifices at 6, 12 and 24 mo), Route: Inhalation, Dose: 0, 2, 6, 15 ppm 6 hr/d, 5 d/wk for 24 mo, study duration 24 mo, Dose: 0, 2, 6, 15 ppm 6 hr/d, 5 d/wk for 24 mo, study duration 24 mo, Tumor Site: Type of Lesion: Nasal passages) was “active; positive. dose-related non-neoplastic nasal lesions also observed”. The carcinogen call (Species: RAT, Strain/Sex: F344/FEMALE, Route: INHALATION, Dose: 0, 2, 6, 15 PPM, Dose: 0, 2, 6, 15 PPM, Tumor Site: Type of Lesion: NASAL TURBINATES: SQUAMOUS CELL CARCINOMA) was “active; positive”, the carcinogen call (Species: RAT, Strain/Sex: F344/MALE, Route: INHALATION, Dose: 0, 0.3, 2, 15 PPM 6 HR/D 5 D/WK FOR 28 MO (STUDY DURATION: 28 MO), Dose: 0, 0.3, 2, 15 PPM 6 HR/D 5 D/WK FOR 28 MO (STUDY DURATION: 28 MO), Tumor Site: Type of Lesion: NASAL CAVITY: SQUAMOUS CELL CARCINOMA, SQUAMOUS CELL PAPILLOMA) was “active; positive” and the carcinogen call (Species: RAT, Strain/Sex: F344/MALE, Route: INHALATION, Dose: 0, 2, 6, 15 PPM, Dose: 0, 2, 6, 15 PPM, Tumor Site: Type of Lesion: NASAL TURBINATES: SQUAMOUS CELL CARCINOMA) was “active; positive”. The carcinogen call (Species: RAT, Strain/Sex: SPRAGUE-DAWLEY/FEMALE, Route: ORAL, Dose: 0, 10, 50, 100, 500, 1000, 1500 PPM IN DRINKING WATER FOR 104 WK (STUDY DURATION: LIFETIME), Dose: 0, 10, 50, 100, 500, 1000, 1500 PPM IN DRINKING WATER FOR 104 WK (STUDY DURATION: LIFETIME), Tumor Site: Type of Lesion: LYMPHATIC SYSTEM: LEUKEMIA, GASTROINTESTINAL SYSTEM: TUMOR) was “active; positive”, the carcinogen call (Species: RAT, Strain/Sex: SPRAGUE-DAWLEY/MALE, Route: INHALATION, Dose: 14.2 PPM 6 HR/DAY, 5 DAY/WK, Tumor Site: Type of Lesion: NASAL CAVITY: SQUAMOUS CELL CARCINOMA) was “active; positive” and the carcinogen call (Species: RAT, Strain/Sex: SPRAGUE-DAWLEY/MALE, Route: ORAL, Dose: 0, 10, 50, 100, 500, 1000, 1500 PPM IN DRINKING WATER FOR 104 WK (STUDY DURATION: LIFETIME), Dose: 0, 10, 50, 100, 500, 1000, 1500 PPM IN DRINKING WATER FOR 104 WK (STUDY DURATION: LIFETIME), Tumor Site: Type of Lesion: LYMPHATIC SYSTEM: LEUKEMIA, GASTROINTESTINAL SYSTEM: TUMOR) was “active; positive”. The carcinogen call (Species: RAT, Strain/Sex: WISTAR/FEMALE, Route: ORAL, Dose: 0, 1.8, 21 MG/KG IN DRINKING WATER FOR UP TO 24 MO (STUDY DURATION: 105 WK), Dose: 0, 1.8, 21 MG/KG IN DRINKING WATER FOR UP TO 24 MO (STUDY DURATION: 105 WK)) was “inactive; negative”, the carcinogen call (Species: RAT, Strain/Sex: WISTAR/MALE, Route: INHALATION, Dose: 0, 0.1, 1.0, 10 PPM 6HR/D, 5D/WK FOR 3 MO (STUDY DURATION: 29 MO), Dose: 0, 0.1, 1.0, 10 PPM 6HR/D, 5D/WK FOR 3 MO (STUDY DURATION: 29 MO)) was “inactive; negative” and the carcinogen call (Species: RAT, Strain/Sex: WISTAR/MALE, Route: INHALATION, Dose: 0, 0.1, 1.0, 10 PPM 6HR/D, 5D/WK FOR 28 MO (STUDY DURATION: 29 MO), Dose: 0, 0.1, 1.0, 10 PPM 6HR/D, 5D/WK FOR 28 MO (STUDY DURATION: 29 MO)) was “inactive; negative”. For the same molecule, the carcinogen call (Species: RAT, Strain/Sex: WISTAR/MALE, Route: ORAL, Dose: 0, 1.2, 15 MG/KG IN DRINKING WATER FOR UP TO 24 MO (STUDY DURATION: 105 WK), Dose: 0, 1.2, 15 MG/KG IN DRINKING WATER FOR UP TO 24 MO (STUDY DURATION: 105 WK)) was “inactive; negative”.
In the case of Cc1c(N(C)C)c(=O)n(-c2ccccc2)n1C, the carcinogen call (Species: MOUSE, Strain/Sex: B6C3F1/FEMALE, Route: ORAL, Dose: 0, 0.04, 0.08% IN DRINKING WATER FOR 100 WK (STUDY DURATION: 104 WK), Dose: 0, 0.04, 0.08% IN DRINKING WATER FOR 100 WK (STUDY DURATION: 104 WK)) is reported as “inactive; negative” and the carcinogen call (Species: MOUSE, Strain/Sex: B6C3F1/MALE, Route: ORAL, Dose: 0, 0.04, 0.08% IN DRINKING WATER FOR 100 WK (STUDY DURATION: 104 WK), Dose: 0, 0.04, 0.08% IN DRINKING WATER FOR 100 WK (STUDY DURATION: 104 WK)) is reported as “inactive; negative”.
For FC(F)(F)CCl, the carcinogen call (Species: RAT, Strain/Sex: WISTAR/FEMALE, Route: GAVAGE, Dose: 300 MG/KG IN CORN OIL 5/WK FOR 52 WK, Tumor Site: Type of Lesion: UTERUS: ADENOCARCINOMA) was “active; positive” and the carcinogen call (Species: RAT, Strain/Sex: WISTAR/MALE, Route: GAVAGE, Dose: 300 MG/KG IN CORN OIL 5/WK FOR 52 WK, Tumor Site: Type of Lesion: TESTES: INTERSTITIAL CELL TUMOR) was “active; positive”.
CC(I)C1OCC(CO)O1 (stereo unspecified) was tested, and the carcinogen call (Species: MOUSE, Strain/Sex: B6C3F1/FEMALE, Route: GAVAGE, Dose: 0, 62, 125 MG/KG IN WATER 5 D/WK FOR 103 WK (STUDY DURATION: 106 WK), Dose: 0, 62, 125 MG/KG IN WATER 5 D/WK FOR 103 WK (STUDY DURATION: 106 WK), Tumor Site: Type of Lesion: FORESTOMACH: SQUAMOUS CELL PAPILLOMA, ANTERIOR PITUTARY GLAND: ADENOMA, HARDERIAN GLAND: ADENOMA, ADENOMA OR CARCINOMA, Tumor Site: Type of Lesion: FORESTOMACH: SQUAMOUS CELL PAPILLOMA, ANTERIOR PITUTARY GLAND: ADENOMA, HARDERIAN GLAND: ADENOMA, ADENOMA OR CARCINOMA) was “active; positive”, the carcinogen call (Species: MOUSE, Strain/Sex: B6C3F1/MALE, Route: GAVAGE, Dose: 0, 125, 250 MG/KG IN WATER 5 D/WK FOR 103 WK (STUDY DURATION: 106 WK), Dose: 0, 125, 250 MG/KG IN WATER 5 D/WK FOR 103 WK (STUDY DURATION: 106 WK)) was “inactive; negative” and the carcinogen call (Species: RAT, Strain/Sex: F344/FEMALE, Route: GAVAGE, Dose: 0, 62, 125 MG/KG IN WATER 5 D/WK FOR 103 WK (STUDY DURATION: 105 WK), Dose: 0, 62, 125 MG/KG IN WATER 5 D/WK FOR 103 WK (STUDY DURATION: 105 WK)) was “inactive; negative”. For the same molecule, the carcinogen call (Species: RAT, Strain/Sex: F344/MALE, Route: GAVAGE, Dose: 0, 125, 250 MG/KG IN WATER 5 D/WK FOR 103 WK (STUDY DURATION: 105 WK), Dose: 0, 125, 250 MG/KG IN WATER 5 D/WK FOR 103 WK (STUDY DURATION: 105 WK), Tumor Site: Type of Lesion: HEMATOPOIETIC SYSTEM: MONONUCLEAR CELL LEUKEMIA, THYROID GLAND: FOLLICULAR CELL CARCINOMA) was “active; positive”.
Nc1ccc(-c2ccc(N)c(Cl)c2)cc1Cl was tested, and the carcinogen call (Species: HAMSTER, Route: ORAL, Tumor Site: Type of Lesion: URINARY BLADDER) was “active; positive”, the carcinogen call (Species: RAT, Route: ORAL, Tumor Site: Type of Lesion: EAR (ZYMBAL GLAND), MAMMARY GLAND, INTEGUMENTARY SYSTEM (SKIN), HEMATOPOIETIC SYSTEM, URINARY BLADDER, Tumor Site: Type of Lesion: EAR (ZYMBAL GLAND), MAMMARY GLAND, INTEGUMENTARY SYSTEM (SKIN), HEMATOPOIETIC SYSTEM, URINARY BLADDER) was “active; positive” and the carcinogen call (Species: RAT, Route: SUBCUTANEOUS, Tumor Site: Type of Lesion: MAMMARY GLAND, INTEGUMENTARY SYSTEM (SKIN)) was “active; positive”.
CC1=C[C@H]2O[C@@H]3[C@H](O)C[C@](C)([C@@]2(CO)[C@H](O)C1=O)[C@]31CO1 was tested, and the carcinogen call (Species: MOUSE, Strain/Sex: B6C3F1/FEMALE, Route: ORAL, Dose: 0, 1, 5, 10 PPM IN DIET FOR 2 YR (STUDY DURATION: 2 YR), Dose: 0, 1, 5, 10 PPM IN DIET FOR 2 YR (STUDY DURATION: 2 YR)) was “inactive; negative” and the carcinogen call (Species: MOUSE, Strain/Sex: B6C3F1/MALE, Route: ORAL, Dose: 0, 1, 5, 10 PPM IN DIET FOR 2 YR (STUDY DURATION: 2 YR), Dose: 0, 1, 5, 10 PPM IN DIET FOR 2 YR (STUDY DURATION: 2 YR)) was “inactive; negative”.
